Laboratory results reported in patent US9271991B2, “Trimegestone (TMG) for treatment of preterm birth” (Dignity Health, priority 2010, dated 2016).
Where “and” joins values, the source holds several entries; their conditions need not be identical. Identical values can stand only once.

Experiments:
[1] = test system: pregnant guinea pigs (preterm delivery); assay: PGE2-induced preterm delivery in pregnant guinea pigs; assay type: in vivo, Hartley guinea pigs; details: TMG 4 mg/day s.c. days 44-47; PGE2 3 mg/day days 46, 47; sacrifice day 48
Source text: Pregnant guinea pigs, another model of pregnancy are also utilized as they more closely resemble the endocrine control of human pregnancy with progesterone levels in pregnancy maintained by the placenta as opposed to the ovaries, which is observed in pregnant rats.
Pregnant Hartley guinea pigs arrived at our facilities at 31-35 days gestation and housed in pairs, with free access to food and water and also maintained on a constant 12-hour light-dark cycle. The animals were euthanized with a combination of xylazine (Gemini; Burns Veterinary Supply Inc, Rockville Center, N.Y.) and ketamine HCL (Ketaset; Fort Dodge Laboratories Inc, Fort Dodge, Iowa). All procedures were approved by the Animal Care and Use Committee of the St. Joseph's Hospital and Medical Center in Phoenix, Ariz.
Pregnant guinea pigs (N=4-6 per group) were allocated into 4 groups (Vehicle (v) only, TMG only, PGE2 only, PGE2+TMG). PGE2 administration (3 mg/day s.c, v=saline) began daily on day 46 to day 47 of gestation. TMG administration (4 mg/day s.c v=BB:CO) began daily on day 44 until day 47 of gestation. All guinea pigs were sacrificed on day 48.

[2] = test system: pregnant rats (term delivery); assay: Delay of term delivery in pregnant rats; assay type: in vivo, Sprague-Dawley rats; details: pregnant rats
Source text: Timed-pregnant Sprague-Dawley rats (200-250 g) from Charles-River Laboratories (Wilmington, Mass., USA) were delivered to our animal care facilities on day 15 of gestation (day 1 being the day when a sperm plug was observed). The animals were housed separately, with free access to food and water and maintained on a constant 12-hour light-dark cycle. Control pregnant rats were spontaneously delivering on day 22 of gestation. The animals were randomly allocated into groups and sacrificed by carbon dioxide inhalation on day 5 postpartum or on day 25 of gestation in the groups with delayed delivery.
Pregnant rats (N=6 per group) were treated, when not otherwise mentioned, from day 20 of gestation until delivery. Single daily treatments were performed at 8 am and twice a day treatments at 8 am and 8 pm. Treatment began daily on day 20 of gestation with vehicles or: a) Topical P4 at various doses (4-30 mg/day, vehicle (v)=fish oil) or topical TMG ([…], v=fish oil; b) Subcutaneous (s.c.) P4 (0.5-4 mg/day, v=sesame oil) or s.c. TMG (0.5-2 mg/day, v=benzyl benzoate (BB) and castor oil (CO), 1:4). Delivery times were observed.
Subcutaneous treatments. All daily injections were by the subcutaneous route (s.c) in […] for the P4 treatments and benzyl benzoate (BB, 1 part): castor oil (CO, 4 parts) for the TMG group. P4 and TMG had dose ranges of 0.5 mg-4 mg per day and 0.5 mg-2 mg per day, respectively. Vehicles only are used in the control groups.
Topical treatments. Topical P4 and TMG (in fish oil and benzyl benzoate:castor oil (1:4), respectively) treatments were applied to the shaved back of the rat twice a day For topical treatments of P4 and TMG, dose range from 2 mg-30 mg per day and 0.005 to 0.5 mg per day, respectively.
Times of delivery of controls and treatment groups were determined as hours after 8 a.m. on day 22 of gestation. […] Delays in delivery less than 80 hours were calculated as less than 100% inhibition. The expulsion of a single pup was noted as delivery. Control groups spontaneously delivered on day 22 of gestation.
The Student's t test was used to compare the treatment groups with its specific control groups to determine the differences in delivery times. A 2-tailed probability value of P<0.05 was considered statistically significant.

[3] = s.c. single daily treatment from day 20 of gestation
[4] = topical twice a day from day 20 of gestation

| SMILES | guinea pigs delivered (preterm) / treated, substance alone [1] | dose for complete block of delivery (80 hour delay, 100 percent inhibition), subcutaneous [2, 3] | dose for complete block of delivery, subcutaneous [2, 3] | dose for complete block of delivery (80 hour delay, 100 percent inhibition), topical [2, 4] | dose for complete block of delivery, topical [2, 4] |
| --- | --- | --- | --- | --- | --- |
| CCCCC[C@H](O)/C=C/[C@H]1[C@H](O)CC(=O)[C@@H]1C/C=C\CCCC(=O)O [PGE2, prostaglandin E2] | 2/3 and 4/6 | – | – | – | – |
| CC(=O)[C@H]1CC[C@H]2[C@@H]3CCC4=CC(=O)CC[C@]4(C)[C@H]3CC[C@]12C [P4, progesterone] | – | 2 mg | 2 mg/day | 15 mg | 15 mg/day |
